One experiment has as its target MDM2 (Homo sapiens, UniProt Q00987). The experiment can be described thus: Competitive fluorescence polarization assay for MDM2. It is filed as binding. Particulars: competitive FP assay, MDM2; for pIC50: read-out: IC50 (MDM2); for pKi: read-out: Ki (MDM2).
In a further experiment the target is T1, MDMX (Homo sapiens, UniProt O15151).
T1 sequence (O15151 1-125): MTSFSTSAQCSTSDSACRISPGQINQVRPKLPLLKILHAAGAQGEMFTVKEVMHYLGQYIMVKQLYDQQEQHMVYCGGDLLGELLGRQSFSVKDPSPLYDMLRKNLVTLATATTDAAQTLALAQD
The experiment in a line: Competitive fluorescence polarization assay for MDMX. It is filed as binding. The conditions noted are these: competitive FP assay; for pIC50: read-out: IC50 (MDMX); for pKi: read-out: Ki (MDMX). For orientation: Polarisation of emitted light reports the rotation of a fluorescent probe.

Structures are written as SMILES. pIC50, pKi: −log10 of the molar value. A value given as a limit tells only on which side of the number the result lay.

MDM2, sequence (Q00987 1-125): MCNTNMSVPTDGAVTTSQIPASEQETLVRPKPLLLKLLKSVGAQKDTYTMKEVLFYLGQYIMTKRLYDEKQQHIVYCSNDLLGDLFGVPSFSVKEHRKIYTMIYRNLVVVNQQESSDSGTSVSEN

A word on the pIC50: it is the IC50 on a negative log10 scale, so that one unit is a factor of ten. By pKi is commonly meant the negative decadic logarithm of the Ki, by convention in mol/L. On to `CC(=O)N[C@@H](CC(C)C)C(=O)N[C@H](C(=O)N[C@@H](Cc1ccccc1)C(=O)N[C@]1(C)CCCCCCC=CCCC[C@@](C)(C(=O)N[C@@H](C)C(=O)N[C@@H](C)C(=O)NC(C)(C)C(=O)N[C@H](C(N)=O)C(C)C)NC(=O)[C@H](CC(C)C)NC(=O)[C@H](CCC(N)=O)NC(=O)[C@H](C)NC(=O)[C@H](Cc2c[nH]c3ccccc23)NC(=O)[C@H](Cc2ccc(O)cc2)NC(=O)[C@H](C)NC1=O)[C@@H](C)O` (single isomer, unassigned) [compound 23], for which, on MDM2, the negative logarithm of the IC50 (pIC50) is 6.00 to 7.00 and the pKi is 7.00 to 8.00.

With `CC(=O)N[C@@H](CC(C)C)C(=O)N[C@H](C(=O)N[C@@H](Cc1ccccc1)C(=O)N[C@]1(C)CCCCCCC=CCCC[C@@](C)(C(=O)N[C@@H](C)C(=O)N[C@@H](C)C(=O)NC(C)(C)C(=O)N[C@H](C(N)=O)C(C)C)NC(=O)[C@H](CC(C)C)NC(=O)[C@H](CCC(N)=O)NC(=O)[C@H](C)NC(=O)[C@H](Cc2c[nH]c3ccccc23)NC(=O)[C@H](Cc2ccc(O)cc2)NC(=O)[C@H](C)NC1=O)[C@@H](C)O` (single isomer, unassigned) [compound 24], on MDM2, the pIC50 is 7.00 to 8.00 and the pKi was above 8.00.

With `CC(=O)N[C@@H](CC(C)C)C(=O)N[C@H](C(=O)N[C@@H](Cc1ccc(F)c(F)c1)C(=O)N[C@]1(C)CCCCCCC=CCCC[C@@](C)(C(=O)N[C@@H](CO)C(=O)N[C@@H](C)C(=O)N[C@@H](C)C(N)=O)NC(=O)[C@H](CC2CCC2)NC(=O)[C@H](CCC(N)=O)NC(=O)[C@H](C)NC(=O)[C@H](Cc2c[nH]c3ccccc23)NC(=O)[C@H](Cc2ccc(O)cc2)NC(=O)[C@H](CCC(=O)O)NC1=O)[C@@H](C)O` (single isomer, unassigned) [compound 289], on MDMX, the negative logarithm of the IC50 (pIC50) was 7.00 to 8.00 and the negative-log Ki (pKi) was 7.00 to 8.00.

As to `CC(=O)N[C@@H](CC(C)C)C(=O)N[C@H](C(=O)N[C@@H](Cc1ccccc1)C(=O)N[C@]1(C)CCCCCCC=CCCC[C@@](C)(C(=O)N[C@@H](C)C(=O)N[C@@H](C)C(=O)N[C@@H](C)C(=O)N[C@@H](C)C(=O)N[C@H](C)C(N)=O)NC(=O)[C@H](CCC(C)C)NC(=O)[C@H](CCC(N)=O)NC(=O)[C@H](C)NC(=O)[C@H](Cc2c[nH]c3ccccc23)NC(=O)[C@H](Cc2ccc(O)cc2)NC(=O)[C@H](C)NC1=O)[C@@H](C)O` (single isomer, unassigned) [compound 313], at MDMX, the negative-log IC50 (pIC50) was 6.00 to 7.00 and the pKi was 7.00 to 8.00.

As for `CC(=O)N[C@@H](CC(C)C)C(=O)N[C@H](C(=O)N[C@@H](Cc1ccccc1)C(=O)N[C@]1(C)CCCCCCC=CCCC[C@@](C)(C(=O)N[C@@H](C)C(=O)N[C@@H](C)C(=O)N[C@@H](C)C(=O)N[C@@H](C)C(=O)N[C@H](C)C(N)=O)NC(=O)[C@H](CCC(C)C)NC(=O)[C@H](CCC(N)=O)NC(=O)[C@H](C)NC(=O)[C@H](Cc2c[nH]c3ccccc23)NC(=O)[C@H](Cc2ccc(O)cc2)NC(=O)[C@H](C)NC1=O)[C@@H](C)O` (single isomer, unassigned) [compound 314], at MDMX, the pIC50 was 7.00 to 8.00 and the pKi was above 8.00.

As for `CCCC[C@H](NC(=O)C(C)(C)NC(=O)[C@H](C)NC(=O)[C@]1(C)CCCC=CCCCCCC[C@@](C)(NC(=O)[C@H](Cc2ccccc2)NC(=O)[C@@H](NC(=O)[C@H](CC(C)C)NC(C)=O)[C@@H](C)O)C(=O)N[C@@H](C)C(=O)N[C@@H](Cc2ccc(O)cc2)C(=O)N[C@@H](Cc2c[nH]c3ccccc23)C(=O)N[C@@H](C)C(=O)N[C@@H](CCC(N)=O)C(=O)N[C@@H](CC(C)C)C(=O)N1)C(=O)N[C@@H](C)C(N)=O` (single isomer, unassigned) [compound 392], at MDM2, the pIC50 was 7.00 to 8.00 and the negative logarithm of the Ki (pKi) was above 8.00.

In the case of `CCCC[C@H](NC(=O)CN(C)C(=O)[C@H](C)NC(=O)[C@]1(C)CCCC=CCCCCCC[C@@](C)(NC(=O)[C@H](Cc2ccccc2)NC(=O)[C@@H](NC(=O)[C@H](CC(C)C)NC(C)=O)[C@@H](C)O)C(=O)N[C@@H](C)C(=O)N[C@@H](Cc2ccc(O)cc2)C(=O)N[C@@H](Cc2c[nH]c3ccccc23)C(=O)N[C@@H](C)C(=O)N[C@@H](CCC(N)=O)C(=O)N[C@@H](CC(C)C)C(=O)N1)C(=O)N[C@@H](C)C(N)=O` (single isomer, unassigned) [compound 396], on MDM2, the pIC50 was above 8.00 and the negative logarithm of the Ki (pKi) was above 8.00.

For `CCCCCCCCCC(=O)N[C@@H](CC(C)C)C(=O)N[C@H](C(=O)N[C@@H](Cc1ccccc1)C(=O)N[C@]1(C)CCCCCCC=CCCC[C@@](C)(C(=O)N[C@@H](CO)C(=O)N[C@@H](C)C(=O)N[C@@H](C)C(N)=O)NC(=O)[C@H](CCC(C)C)NC(=O)[C@H](CCC(N)=O)NC(=O)[C@H](C)NC(=O)[C@H](Cc2c[nH]c3ccccc23)NC(=O)[C@H](Cc2ccc(O)cc2)NC(=O)[C@H](CCC(=O)O)NC1=O)[C@@H](C)O` [compound 282], on MDMX, the pIC50 is below 6.00 and the pKi was below 6.00.

As for `CC(=O)N[C@@H](CC(C)C)C(=O)N[C@H](C(=O)N[C@@H](Cc1ccccc1)C(=O)N[C@]1(C)CCCCCCC=CCCC[C@@](C)(C(=O)N[C@@H](CO)C(=O)N[C@@H](C)C(=O)N[C@@H](C)C(N)=O)NC(=O)[C@H](CC2CCC2)NC(=O)[C@H](CCC(N)=O)NC(=O)[C@H](C)NC(=O)[C@H](Cc2c[nH]c3cc(Cl)ccc23)NC(=O)[C@H](Cc2ccc(O)cc2)NC(=O)[C@H](CCC(=O)O)NC1=O)[C@@H](C)O` [compound 332], on MDMX, the pIC50 was 7.00 to 8.00 and the pKi is above 8.00.

In the case of `CC(C)C[C@H](NC(=O)CN(C)C)C(=O)N[C@H](C(=O)N[C@@H](Cc1ccccc1)C(=O)N[C@]1(C)CCCCCCC=CCCC[C@@](C)(C(=O)N[C@@H](CO)C(=O)N[C@@H](C)C(=O)N[C@@H](C)C(N)=O)NC(=O)[C@H](CC2CCC2)NC(=O)[C@H](CCC(N)=O)NC(=O)[C@H](C)NC(=O)[C@H](Cc2c[nH]c3ccccc23)NC(=O)[C@H](Cc2ccc(O)cc2)NC(=O)[C@H](CCC(=O)O)NC1=O)[C@@H](C)O` [compound 435], on MDMX, the negative logarithm of the IC50 (pIC50) is 7.00 to 8.00 and the pKi was above 8.00.

With `CC(C)C[C@H](NC(=O)c1ccc(F)cc1)C(=O)N[C@H](C(=O)N[C@@H](Cc1ccccc1)C(=O)N[C@]1(C)CCCCCCC=CCCC[C@@](C)(C(=O)N[C@@H](CO)C(=O)N[C@@H](C)C(=O)N[C@@H](C)C(N)=O)NC(=O)[C@H](CC2CCC2)NC(=O)[C@H](CCC(N)=O)NC(=O)[C@H](C)NC(=O)[C@H](Cc2c[nH]c3ccccc23)NC(=O)[C@H](Cc2ccc(O)cc2)NC(=O)[C@H](CCC(=O)O)NC1=O)[C@@H](C)O` [compound 597], on MDMX, the pKi is 7.00 to 8.00.

On to `CC(C)C[C@H](NC(=O)CCNC(=O)c1ccc2c(c1)C(=O)OC21c2ccc(N(C)C)cc2Oc2cc(N(C)C)ccc21)C(=O)N[C@H](C(=O)N[C@@H](Cc1ccccc1)C(=O)N[C@]1(C)CCCCCCC=CCCC[C@@](C)(C(=O)N[C@@H](CO)C(=O)N[C@@H](C)C(=O)N[C@@H](C)C(N)=O)NC(=O)[C@H](CC2CCC2)NC(=O)[C@H](CCC(N)=O)NC(=O)[C@H](C)NC(=O)[C@H](Cc2c[nH]c3ccccc23)NC(=O)[C@H](Cc2ccc(O)cc2)NC(=O)[C@H](CCC(=O)O)NC1=O)[C@@H](C)O` [compound 686], for which the pKi at MDMX is 7.00 to 8.00.

The record behind these values is patent publication US8927500B2, “Peptidomimetic macrocycles” (Aileron Therapeutics, Inc., priority 2012, dated 2015).
